# Experimental data as given in US7931742B2, “Biocidal Structural Barrier (BSB)” (BASF SE, priority 2005, dated 2011).
# Test system: termites
# Test: Anti-termite effectiveness of chlorfenapyr incorporated in a concrete block (barrier test after NF X41-541)
# Assay type: in vivo
# Description: A block of concrete, 10 cm high, with passages for the termites, is poured, incorporating the treatment product in the mixing water.
# After drying and an infiltration test, the test set-up and performance follow the standard NF X41-541. The barrier effect of the specimen is verified by evaluation of the mortality and penetration of the termites in the clean compartment containing blocks of wood. An evaluation of the blocks of wood following the scoring of EN NF 117 is performed at the end of the test.
smiles,measurement,setting,value
CCOCn1c(-c2ccc(Cl)cc2)c(C#N)c(Br)c1C(F)(F)F [chlorfenapyr],Barrier effect of treated concrete against termites,"concrete treated with chlorfenapyr, overall conclusion",effectively prevents termites from attacking a building
same,Rate of survival %,"series A: concentration studied 0.05 % (m/m), retention in the concrete: product 261 ppm, chlorfenapyr 56 ppm, 132 g/m^3",0%
same,Rate of survival %,"series B: concentration studied 0.1 % (m/m), retention in the concrete: product 521 ppm, chlorfenapyr 112 ppm, 265 g/m^3",0%
same,Rate of survival %,"series C: concentration studied 0.3 % (m/m), retention in the concrete: product 1567 ppm, chlorfenapyr 337 ppm, 795 g/m^3",0%
same,Rate of survival %,"series D: concentration studied 0.6 % (m/m), retention in the concrete: product 3132 ppm, chlorfenapyr 673 ppm, 1588 g/m^3",0%
